≈ marks a conversion by molar mass, not a printed value.
Assays:
[1] = Solubility of the compound in chloroform; format: physicochemical
[2] = Cytotoxicity against human LN229 cells assessed as concentration required for induction of cell death after 24 hrs by crystal violet staining based light microscopic analysis; format: functional, LN-229
[3] = Solubility of the compound in CHCl3/TFA; format: physicochemical
[4] = Solubility of the compound in trifluoroacetic acid; format: physicochemical
[5] = Solubility of the compound in DMSO; format: physicochemical
[6] = Solubility of the compound in DMSO/TFA; format: physicochemical
[7] = Solubility of the compound in isopropanol; format: physicochemical
[8] = Solubility of the compound in ethanol; format: physicochemical
[9] = 1-Octanol-water distribution coefficient, log P of compound; format: physicochemical
[10] = Solubility of the compound in water; format: physicochemical
[11] = Solubility of compound in 1% DMSO at 100 mg/ml; format: physicochemical

Compound | solubility [1] | Activity [2] [µg/mL] | solubility [3] | solubility [4] | solubility [5] | solubility [6] | solubility [7] | solubility [8] | logP [9] | solubility [10] [mg/mL] | solubility [11]
CN1C(=O)C(C(=O)NNC(=O)Nc2ccc(F)cc2)C(=O)N(C)C1=O | Insoluble | 100 | Insoluble | Insoluble | Insoluble | Insoluble | Insoluble | Insoluble |  |  | 
O=C(NNC(=O)C1C(=O)NC(=O)N(c2ccccc2)C1=O)Nc1ccc([N+](=O)[O-])cc1 (configuration not stated) | Insoluble | 100 | Insoluble | Insoluble | Insoluble | Insoluble | Insoluble | Insoluble |  |  | 
CN1C(=O)C(C(=O)NNC(=O)Nc2ccc(Cl)c(Cl)c2)C(=O)N(C)C1=O | Insoluble | 1 | Insoluble | Insoluble | Insoluble | Insoluble | Insoluble | Insoluble | 0.73 | 0.5 (≈ 1240 µM) | Insoluble
O=C1NC(=O)C(C(=O)NNC(=O)Nc2ccc(Cl)cc2)C(=O)N1 | Insoluble | 100 | Soluble | Soluble | Insoluble | Soluble | Insoluble | Insoluble |  |  | 
CN1C(=O)C(C(=O)NNC(=O)Nc2ccc(O)cc2)C(=O)N(C)C1=O | Insoluble | 10 | Insoluble | Insoluble | Insoluble | Insoluble | Insoluble | Insoluble |  |  | 
CN1C(=O)C(C(=O)NNC(=O)Nc2ccc(Cl)cc2)C(=O)N(C)C1=O | Insoluble | 10 | Insoluble | Insoluble | Insoluble | Insoluble | Insoluble | Insoluble |  |  | 
O=C1NC(=O)C(C(=O)NNC(=O)Nc2ccccc2)C(=O)N1 | Insoluble | 100 | Soluble | Soluble | Insoluble | Soluble | Insoluble | Insoluble |  |  | 
O=C(NNC(=O)C1C(=O)NC(=O)N(c2ccccc2)C1=O)Nc1ccc(Cl)c(Cl)c1 (configuration not stated) | Insoluble | 100 | Insoluble | Insoluble | Insoluble | Insoluble | Insoluble | Insoluble |  |  | 
CN1C(=O)NC(=O)C(C(=O)NNC(=O)Nc2ccc(O)cc2)C1=O (configuration not stated) | Insoluble |  | Insoluble | Insoluble | Insoluble | Insoluble | Insoluble | Insoluble | 1.08 | 0.07 (≈ 209 µM) | Insoluble
CN1C(=O)NC(=O)C(C(=O)NNC(=O)Nc2ccc([N+](=O)[O-])cc2)C1=O (configuration not stated) | Insoluble | 100 | Insoluble | Insoluble | Insoluble | Insoluble | Insoluble | Insoluble |  |  | 
CN1C(=O)NC(=O)C(C(=O)NNC(=O)Nc2cccc(O)c2)C1=O (configuration not stated) | Insoluble |  | Insoluble | Insoluble | Insoluble | Insoluble | Insoluble | Insoluble |  |  | 
O=C(NNC(=O)C1C(=O)NC(=O)N(c2ccccc2)C1=O)Nc1ccc(Cl)cc1 (configuration not stated) | Insoluble | 100 | Insoluble | Insoluble | Insoluble | Insoluble | Insoluble | Insoluble |  |  | 
CN1C(=O)NC(=O)C(C(=O)NNC(=O)Nc2ccccc2)C1=O (configuration not stated) | Insoluble |  | Insoluble | Insoluble | Insoluble | Insoluble | Insoluble | Insoluble |  |  | 
CN1C(=O)C(C(=O)Nc2ccc(Cl)cc2)C(=O)N(C)C1=O |  | 10 |  |  |  |  |  |  | 1.18 | 0.13 (≈ 420 µM) | Insoluble
O=C(NNC(=O)C1C(=O)NC(=O)N(c2ccccc2)C1=O)Nc1ccc(O)c([N+](=O)[O-])c1 (configuration not stated) | Insoluble | 100 | Insoluble | Insoluble | Insoluble | Insoluble | Insoluble | Insoluble |  |  | 
O=C1NC(=O)C(C(=O)NNC(=O)Nc2ccc(O)c([N+](=O)[O-])c2)C(=O)N1 | Insoluble |  | Soluble | Soluble | Insoluble | Soluble | Insoluble | Insoluble |  |  | 
O=C(NNC(=O)C1C(=O)NC(=O)N(c2ccccc2)C1=O)Nc1ccc(O)cc1 (configuration not stated) | Insoluble |  | Insoluble | Insoluble | Insoluble | Insoluble | Insoluble | Insoluble |  |  | 
CN1C(=O)NC(=O)C(C(=O)NNC(=O)Nc2ccc(C#N)cc2)C1=O (configuration not stated) | Insoluble |  | Insoluble | Insoluble | Insoluble | Insoluble | Insoluble | Insoluble |  |  | 
CN1C(=O)NC(=O)C(C(=O)NNC(=O)Nc2ccc(Cl)c(Cl)c2)C1=O (configuration not stated) | Insoluble |  | Insoluble | Insoluble | Insoluble | Insoluble | Insoluble | Insoluble |  |  | 
O=C(NNC(=O)C1C(=O)NC(=O)N(c2ccccc2)C1=O)Nc1cccc(O)c1 (configuration not stated) | Insoluble |  | Insoluble | Insoluble | Insoluble | Insoluble | Insoluble | Insoluble |  |  | 
CN1C(=O)C(C(=O)NNC(=O)Nc2ccc(O)c([N+](=O)[O-])c2)C(=O)N(C)C1=O | Insoluble | 10 | Insoluble | Insoluble | Insoluble | Insoluble | Insoluble | Insoluble |  |  | 
CN1C(=O)C(C(=O)NNC(=O)Nc2ccc(C#N)cc2)C(=O)N(C)C1=O | Insoluble | 100 | Insoluble | Insoluble | Insoluble | Insoluble | Insoluble | Insoluble |  |  | 
O=C(NNC(=O)C1C(=O)NC(=O)N(c2ccccc2)C1=O)Nc1ccc(F)cc1 (configuration not stated) | Insoluble |  | Insoluble | Insoluble | Insoluble | Insoluble | Insoluble | Insoluble |  |  | 
N#Cc1ccc(NC(=O)NNC(=O)C2C(=O)NC(=O)N(c3ccccc3)C2=O)cc1 (configuration not stated) | Insoluble | 100 | Insoluble | Insoluble | Insoluble | Insoluble | Insoluble | Insoluble |  |  | 
CN1C(=O)NC(=O)C(C(=O)NNC(=O)Nc2ccc(Cl)cc2)C1=O (configuration not stated) | Insoluble | 100 | Insoluble | Insoluble | Insoluble | Insoluble | Insoluble | Insoluble |  |  | 
CN1C(=O)C(C(=O)NNC(=O)Nc2ccc([N+](=O)[O-])cc2)C(=O)N(C)C1=O | Insoluble | 10 | Insoluble | Insoluble | Insoluble | Insoluble | Insoluble | Insoluble |  |  | 
CN1C(=O)C(C(=O)NNC(=O)Nc2ccccc2)C(=O)N(C)C1=O | Insoluble |  | Insoluble | Insoluble | Insoluble | Insoluble | Insoluble | Insoluble |  |  | 
CN1C(=O)C(C(=O)Nc2ccccc2)C(=O)N(C)C1=O |  | 100 |  |  |  |  |  |  | 0.4 | 0.14 (≈ 509 µM) | Insoluble
